Laboratory results published in patent US20030045480A1, “Method of treating hyperresorptive bone disorders” (priority 2001, published 2003).
pIC50: −log10 of the molar value.

Biological target: Src Kinase (p60c-Src) (Homo sapiens, UniProt P12931)
Assay: General Assay Method for Src-Kinase (DELFIA time-resolved fluorometry, poly(Glu,Tyr) substrate)
Assay type: biochemical
Conditions: Src kinase 1:8000, 100 μM ATP, 15 min. at room temp; read-out: Activity (uMol. Delfia assay. IC50)
Procedure: The compounds 1-25 above were assayed for activity with respect to the Src protein tyrosine kinase by the fluorometric method described in Measurement of the Protein Tyrosine Kinase Activity of c-Src Using Time-Resolved Fluorometry of Europium Chelates, Braunwalder, A. F. et al., Analytical Biochemistry 238, 159-164 (1996), the disclosure of which is incorporated herein by reference, using the materials and procedures further specified below.
General Assay Method for Src-Kinase:
Costar 384 Clear, non-treated, high-binding plates
Sigma poly(Glu, Tyr) 4:1, Ave. MW 35,000
Sigma ATP (1.5 mM Stock Soln. in H2O)
MES Buffer: 30 mM MES (pH 6.8)
MBI Buffer: (MES+0.4 mg/ml BSA+0.003% IGEPAL)
Wallac Eu-labelled anti-phosphotyrosine Antibody (CR04-100)
Antibody Dilution Buffer: (MES+3%BSA)
DELFIA® Wash Solution (TTBS):
DELFIA Enhancement Solution
The plates were coated with 0.1 mg/ml poly(Glu, Tyr) in Coating Solution, 35 μl/well. It was let stand overnight at room temp. The plates were then washed 3 times with MES (100 μl/wash).
The reaction was stopped by aspiration, and then washed 3 times with MES (100 μl/wash). 20 μl 0.4 ng/μl of antibody in Antibody Dilution Buffer (final=8 ng Ab/well) was added and then incubated for 30 min. at RT. The antibody solution was removed by aspiration and then washed 3 times with 1X DELFIA Wash Solution. 20 μl DELFIA Enhancement Solution was added and the value was read.

Chain of Src Kinase (p60c-Src) (P12931 whole entry): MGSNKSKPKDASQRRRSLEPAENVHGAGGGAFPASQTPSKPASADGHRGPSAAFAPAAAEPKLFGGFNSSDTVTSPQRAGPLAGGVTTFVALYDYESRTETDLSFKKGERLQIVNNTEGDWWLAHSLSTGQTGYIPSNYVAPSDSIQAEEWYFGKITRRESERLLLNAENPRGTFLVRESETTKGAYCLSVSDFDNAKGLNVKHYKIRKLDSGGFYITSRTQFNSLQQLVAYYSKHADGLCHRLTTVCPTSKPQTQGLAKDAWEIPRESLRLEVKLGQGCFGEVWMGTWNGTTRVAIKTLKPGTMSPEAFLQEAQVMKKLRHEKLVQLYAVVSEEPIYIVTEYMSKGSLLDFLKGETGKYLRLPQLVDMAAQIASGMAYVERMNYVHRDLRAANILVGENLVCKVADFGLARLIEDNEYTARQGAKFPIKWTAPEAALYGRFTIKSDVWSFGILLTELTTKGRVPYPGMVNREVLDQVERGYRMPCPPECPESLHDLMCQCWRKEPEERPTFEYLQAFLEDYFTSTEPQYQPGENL

Row | pIC50 | SMILES
1 | 4.66 | N=C(N)c1ccc(C(=O)N(Cc2cccc(Oc3ccccc3)c2)C(Cc2ccc(-c3ccccc3)cc2)C(=O)NCC(N)=O)cc1 (stereo not shown) [Example 1, N-[4-Amidinobenzoyl]-N-[3-phenoxybenzyl]-3-(4-biphenyl)-alanyl-glycyl-amide]
2 | 4.64 | CC(C)(C)c1ccc(Oc2cccc(CN(C(=O)c3cccc(C(=N)N)c3)C(CC3CCCCC3)C(=O)NCC(N)=O)c2)cc1 (stereo not shown) [Example 2, 3-amidinobenzoyl-(3-(4-tert-butylphenoxy)benzyl)-cyclohexylylalanyl-glycyl-amide]
3 | 4.35 | CC(C)(C)c1ccc(Oc2cccc(CN(C(=O)c3cccc(C(=N)N)c3)C(Cc3ccc(N)cc3)C(=O)NCC(N)=O)c2)cc1 (stereo not shown) [Example 3, N-[3-Amidinobenzoyl]-N-[3-(4-tert-butylphenoxy)benzyl]-4-aminophenylalanyl-glycyl-amide]
4 | 4.74 | CC(C)(C)c1ccc(Oc2cccc(CN(C(=O)c3cccc(C(=N)N)c3)C(Cc3cccc4ccccc34)C(=O)NCC(N)=O)c2)cc1 (stereo not shown) [Example 4, N-[3-Amidinobenzoyl]-N-[3-(4-tert-butylphenoxy)benzyl]-1-naphthylalanyl-glycyl-amide]
5 | 4.90 | CC(C)(C)c1ccc(Oc2cccc(CN(C(=O)c3cccc(C(=N)N)c3)C(CCCNC(=N)N)C(=O)NCC(N)=O)c2)cc1 (stereo not shown) [Example 5, N-[3-Amidinobenzoyl]-N-[3-(4-tert-butylphenoxy)benzyl]-arginyl-glycyl-amide]
6 | 4.85 | CC(C)(C)c1ccc(Oc2cccc(CN(C(=O)c3ccc(C(=N)N)cc3)C(Cc3c[nH]c4ccccc34)C(=O)NCC(N)=O)c2)cc1 (stereo not shown) [Example 6, 4-amidinobenzoyl-(3-(4-tert-butylphenoxy)phenoxybenzyl)-tryptanyl-glycyl-amide]
7 | 4.89 | N=C(N)c1ccc(C(=O)N(Cc2ccc(-c3ccccc3)cc2)C(Cc2ccc(-c3ccccc3)cc2)C(=O)NCC(N)=O)cc1 (stereo not shown) [Example 7, N-[4-Amidinobenzoyl]-N-[4-biphenylmethyl]-3-(4-biphenyl)alanyl-glycyl-amide]
8 | 5.07 | NC(=O)C(Cc1ccc2ccccc2c1)NC(=O)Nc1ccc(N2CCN(C3CCCCC3)CC2)c(NC(=O)CCCc2ccccc2)c1 (stereo not shown) [Example 8, 4-Cyclohexyl-1-{[2-(4-phenylbutanoyl)amino]-4-[1-aminocarbonyl-2-(2-naphthyl)ethylamino]carbonylaminophenyl}piperazine]
9 | 4.77 | NC(=O)C(Cc1ccc2ccccc2c1)NC(=O)Nc1ccc(N2CCN(C3CCCCC3)CC2)c(NC(=O)/C=C/c2ccccc2)c1 (stereo not shown) [Example 9, 4-Cyclohexyl-1-{[2-cinnamoylamino]-4-[1-aminocarbonyl-2-(2-naphthyl)ethylamino]carbonylaminophenyl}piperazine]
10 | 4.81 | NC(=O)C(CCc1ccccc1)NC(=O)Nc1ccc(N2CCN(C3CCCCC3)CC2)c(NC(=O)/C=C/c2ccccc2)c1 (stereo not shown) [Example 10, 4-Cyclohexyl-1-{[2-cinnamoylamino]-4-[(1-aminocarbonyl-3-phenyl)propylamino]carbonylaminophenyl}piperazine]
11 | 4.96 | NC(=O)C(CCc1ccccc1)NC(=O)Nc1ccc(N2CCN(C3CCCCC3)CC2)c(NC(=O)CCCc2ccccc2)c1 (stereo not shown) [Example 11, 4-Cyclohexyl-1-{[2-(4-phenylbutanoyl)amino]-4-[(1-aminocarbonyl-3-phenyl)propylamino]carbonylaminophenyl}piperazine]
12 | 4.73 | NC(=O)C(CC1CCCCC1)NC(=O)Nc1ccc(N2CCN(C3CCCCC3)CC2)c(NC(=O)/C=C/c2ccccc2)c1 (stereo not shown) [Example 12, 4-Cyclohexyl-1-{[2-cinnamoylamino]-4-[(1-aminocarbonyl-2-cyclohexyl)ethylamino]carbonylaminophenyl}piperazine]
13 | 4.89 | NC(=O)C(Cc1ccc2ccccc2c1)NC(=O)Nc1ccc(N2CCCN(C(=O)C3CCNCC3)CC2)c(NC(=O)CCCc2ccccc2)c1 (stereo not shown) [Example 13, 4-(Piperidin-4-yl)carbonyl-1-{[2-(4-phenylbutanoyl)amino]-4-[1-aminocarbonyl-2-(2-naphthyl)ethylamino]carbonylaminophenyl}homopiperazine]
14 | 5.56 | NC(=O)C(Cc1ccc2ccccc2c1)NC(=O)Nc1ccc(N2CCCN(C(=O)C3CCNCC3)CC2)c(NC(=O)c2cc3ccccc3o2)c1 (stereo not shown) [Example 14, 4-(Piperidin-4-yl)carbonyl-1-{[2-(2-benzofuranoyl)amino]-4-[1-aminocarbonyl-2-(2-naphthyl)ethylamino]carbonylaminophenyl}homopiperazine]
15 | 5.19 | NC(=O)C(CC1CCCCC1)NC(=O)Nc1ccc(N2CCCN(C(=O)C3CCNCC3)CC2)c(NC(=O)c2cc3ccccc3o2)c1 (stereo not shown) [Example 15, 4-(Piperidin-4-yl)carbonyl-1-{[2-(2-benzofuranoyl)amino]-4-[1-aminocarbonyl-2-cyclohexylethylamino]carbonylaminophenyl}homopiperazine]
16 | 4.44 | NC(=O)C1CCC(CNC(=O)Nc2ccc(N3CCCN(C(=O)C4CCNCC4)CC3)c(NC(=O)c3cc4ccccc4o3)c2)CC1 (stereo not shown) [Example 16]
17 | 4.43 | CNCC(=O)N1CCCN(c2ccc(NC(=O)NCC3CCC(C(N)=O)CC3)cc2NC(=O)c2cc3ccccc3o2)CC1 (stereo not shown) [Example 17]
18 | 4.72 | NC(=O)C1CCC(CNC(=O)Nc2ccc(N3CCCN(C(=O)C4CCCN4)CC3)c(NC(=O)c3cc4ccccc4o3)c2)CC1 (stereo not shown) [Example 18, 4-(Pyrrolidin-2-yl)carbonyl-1-[2-[(2-benzo-furanoyl)amino]-4-[[(4-aminocarbonyl)cyclohexyl-methyl-amino]carbonylamino]phenyl] homopiperazine]
19 | 4.66 | NC(=O)C1CCC(CNC(=O)Nc2ccc(N3CCC(N4CCCCC4)CC3)c(NC(=O)c3cc4ccccc4o3)c2)CC1 (stereo not shown) [Example 19]
20 | 4.55 | NC(=O)C(CC1CCCCC1)NC(=O)Nc1ccc(N2CCCN(C(=O)C3CCNCC3)CC2)c(NC(=O)CCCc2ccccc2)c1 (stereo not shown) [Example 20]
21 | 4.66 | NC(=O)C(CCc1ccccc1)NC(=O)Nc1ccc(N2CCCN(C(=O)C3CCNCC3)CC2)c(NC(=O)CCCc2ccccc2)c1 (stereo not shown) [Example 21]
22 | 4.85 | CC(C)C(NS(=O)(=O)c1cc(NC(=O)C2CCCN2)ccc1N1CCC(Cc2ccccc2)CC1)C(N)=O (stereo not shown) [Example 22, N-(1-Aminocarbonyl-2-methylpropyl)-2-[(4-phenylmethyl)piperidin-1-yl]-5-[(2-pyrrolidinocarbonyl)amino]phenylsulfonamide]
23 | 4.92 | CC(C)C(NS(=O)(=O)c1cc(NC(=O)C2CCNCC2)ccc1N1CCC(Cc2ccccc2)CC1)C(N)=O (stereo not shown) [Example 23]
24 | 4.38 | CC(C)C(NS(=O)(=O)c1cc(NC(=O)/C=C/c2ccccc2)ccc1N1CCN(C2CCCCC2)CC1)C(N)=O (stereo not shown) [Example 24, 1-[2-[N-(2-Aminocarbonyl-3-methylbutyl)sulfonamido]-5-[2-cinnamoylamino]]phenyl-4-cyclohexylpiperazine]
25 | 4.56 | NC(=O)C1CCC(CNS(=O)(=O)c2cc(NC(=O)C3CCCN3)ccc2N2CCC(Cc3ccccc3)CC2)CC1 (stereo not shown) [Example 25, N-[[(4-Aminocarbonyl)cyclohexylmethyl]amino]-[2-[(4-phenylmethyl)piperidin-1-yl]-5-[(2-pyrrolidinocarbonyl)-amino]phenyl]sulfonamide]
